Test results: patent publication US20250205204A1, “Transcription Factor Brn2 Inhibitory Compounds for Use as Therapeutics” (The University of British Columbia, priority 2021, published 2025)
Entries after “also recorded” stand apart in the source; their conditions may differ.

Legend:
[1] = target: T1, BRN2 (Homo sapiens, UniProt P20265); test: BLI binding; settings: result in words
T1 sequence (P20265 1-443): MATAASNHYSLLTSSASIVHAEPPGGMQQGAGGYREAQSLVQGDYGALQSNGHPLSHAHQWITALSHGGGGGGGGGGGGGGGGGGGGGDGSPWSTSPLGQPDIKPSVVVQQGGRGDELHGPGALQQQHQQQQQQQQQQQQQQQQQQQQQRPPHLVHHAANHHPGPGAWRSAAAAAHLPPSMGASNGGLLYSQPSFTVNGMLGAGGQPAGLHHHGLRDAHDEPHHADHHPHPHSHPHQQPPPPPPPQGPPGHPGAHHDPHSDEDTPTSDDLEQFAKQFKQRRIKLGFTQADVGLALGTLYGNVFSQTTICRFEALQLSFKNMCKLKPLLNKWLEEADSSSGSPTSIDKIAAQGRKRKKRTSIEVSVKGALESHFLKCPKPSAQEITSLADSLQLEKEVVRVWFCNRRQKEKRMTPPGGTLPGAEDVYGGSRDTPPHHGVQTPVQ

[2] = tested on: 42D^ENZR cells; test: Cell proliferation, BRN2 expressing 42D cells (crystal violet); format: cell-based; settings: about 72 hours; for Growth Specificity: 42D (express BRN2) versus 16D (no BRN2) cells, result in words; for IC50: 42D cells, proliferation, read-out: 42D IC50
Outline: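 42D^ENZR (~7000/well) and 16D^CRPC (~5000/well) cells plated, compound added next day from 3× media stocks. After ~72 hours, cells fixed with glutaraldehyde, stained with crystal violet, dye eluted in Sorensen solution; absorbance read at 590 nm.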

[3] = tested on: 16D^CRPC cells; test: Cell proliferation, 16D cells that do not express BRN2 (crystal violet); format: cell-based; settings: for effect on 16D: result in words; for concentration above which 16D is affected: proliferation
Method: Step 3: Cell Proliferation
Plate 42DE^NZR (˜7000 cells per well) and 16D^CRPC (˜5000 cells per well) cells in 96 well plate with a volume of 100 μL per well. • 2. Next day 1 mL aliquots of media are combined with 3× the desired concentration of compounds. The aliquots are vortexed and 50 μL of each 3× concentration is added to the 100 μL of media in each well to give the ix desired concentration.
The following are the desired concentrations:
0, 10 nM, 100 nM, 500 nM, 1 μM, 2.5 μM, 5 μM, 10 μM, 15 μM, 20 μM, 30 μM. • 3. Approximately 72 hours later, 17 μL of 10% Glutaraldehyde is added to each well and plates are placed on a shaker for 20-30 minutes. • 4. Media is washed off the fixed cells by slow submersion in a container of water. Then the water is removed by tapping the plate upside down. • 5. 75 μL of Crystal Violet™ solution is added into the 96 well plates and placed on a shaker for ˜30 minutes. • 6. Media is washed off the fixed cells by repeated slow submersion in a container of water and the plates are allowed to dry over-night. • 7. Next day, 75 μL of Sorensen Solution is accurately pipetted into each well. The plates placed on a shaker for ˜30 minutes. • 8. Absorbance is measured in the plate at 590 nm. Compounds that Show Specificity Towards 42DE^NZR Cells Vs 16D^CRPC Cells Progress to Step 4.
(§1) In TABLES 1 and 2, in columns Met Stab % and T½, refers to compound's stability in MLM. There is a distinction in TABLES 1 and 2 difference between “Active” and “Specific” or “Specificity”. Some of the compounds were first tested to quantify inhibition of BRN2 transcriptional activity in a luciferase assay to determine BRN2 inhibition at 10 μM and 30 μM concentrations. […] Generally, compounds having low inhibitory activity were compounds with less than about ˜30% or activation at either concentration (i.e. 10 μM or 30 μM). Furthermore, some compounds that lacked specificity could also show off-target effects.

[4] = Metabolic stability in liver microsomes (MLM); format: in vitro ADME, mice; settings: 0.25 mg/mL protein; for half-life at 1 μM: mouse, liver microsomes, pH 7.4, 1 μM compound, read-out: T1/2 in mins (MLM); for Met Stab % (60 mins) MLM: percent remaining at 60 min, 1 μM compound, 1 mM NADPH
Outline: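 Mouse liver microsomes (0.25 mg/mL protein) in 50 mM potassium phosphate pH 7.4 at 37 °C with 1 µM compound, 1 mM NADPH, 0.1% DMSO; sampled 0–60 min in duplicate. LC-MS/MS parent depletion gives half-life; CL'int in mL/min/kg scaled with 45 mg protein/g liver, 90 g liver.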

[5] = tested on: BRN2 transcriptional activity; test: BRN2-luciferase reporter activity in 42D^ENZR cells; format: cell-based; settings: 24 hours
Description: Step 1: Reporter Activity
Decreased expression of luciferase protein is validated via western blot to confirm downregulation and avoid false positive molecules that inhibit luciferase protein activity and not BRN2-drive luciferase expression. Molecules are prioritized by their inhibition potency to measure direct interaction with BRN2 in Step 2.
as §1

| BLI binding [1] | half-life at 1 μM [4] [min] | Met Stab % (60 mins) MLM [4] [%] | Compound | Growth Specificity [2] | IC50 [2] [µM] | effect on 16D [3] | concentration above which 16D is affected [3] [µM] | inhibition at 10 µM [5] [%] | inhibition at 30 µM [5] [%] |
| --- | --- | --- | --- | --- | --- | --- | --- | --- | --- |
| Positive binding | 36 | 30 | O=C1/C(=N\Nc2nc3ccccc3s2)Cc2cc(O)ccc21 [7-121] | Not specific |  |  |  |  |  |
| No binding | 10 | 1 | CC(C)c1ccc2c(c1)C/C(=N/Nc1nc3ccccc3s1)C2=O [7-122] | Not specific |  |  |  |  |  |
| No binding | 25 | 18 | O=C1/C(=N\Nc2nc3ccccc3s2)Nc2cc(F)ccc21 [7-123] | Not specific |  |  |  |  |  |
| No binding | 27 | 21 | O=C1Nc2cc(F)ccc2/C1=N\Nc1nc2ccccc2s1 [7-124] | Not specific |  |  |  |  |  |
| No binding | 44 | 36 | O=C1/C(=N\Nc2nc3ccccc3s2)Cc2c(Cl)cccc21 [7-125] | specific |  |  |  |  |  |
| binding | 15 | 6 | O=C1/C(=N\Nc2nc3ccccc3s2)Cc2c(F)cccc21 [7-126] | specific |  |  |  |  |  |
| No binding | 23 | 14 | CN(C)c1ccc2c(c1)C/C(=N/Nc1nc3ccccc3s1)C2=O [7-127] | Not specific |  |  |  |  |  |

Second part, the molecule before the results:

| Compound | BLI binding [1] | half-life at 1 μM [4] [min] | Met Stab % (60 mins) MLM [4] [%] | Growth Specificity [2] | IC50 [2] [µM] | effect on 16D [3] | concentration above which 16D is affected [3] [µM] | inhibition at 10 µM [5] [%] | inhibition at 30 µM [5] [%] |
| --- | --- | --- | --- | --- | --- | --- | --- | --- | --- |
| Fc1ccc2c(c1)CC/C2=N/Nc1nc2ccccc2s1 [7-57] | Positive | 8 | 0 | Specific to 42D | 10 | no effect on 16D |  |  |  |
| Fc1cccc2nc(N/N=C3/CCc4ccccc43)sc12 [7-65] |  | 6 | 0 | Specific to 42D | 10 | no effect on 16D |  |  |  |
| c1ccc2sc(N/N=C3/CCc4ccncc43)nc2c1 [7-66] |  | 8 | 1 | Specific to 42D | 10 | no effect on 16D |  |  |  |
| O=C1/C(=N\Nc2nc3ccccc3s2)Cc2ccc(Cl)cc21 [7-72] |  | 17 | 8 | Specific to 42D at low doses |  |  | > 15 |  |  |
| CC(C)Oc1ccc2c(c1)C/C(=N/Nc1nc3ccccc3s1)C2=O [7-73, (Z)-2-(2-(benzo[d]thiazol-2-yl)hydrazineylidene)-5-isopropoxy-2,3-dihydro-1H-inden-1-one] | Positive binding | 26 | 19 | Specific to 42D at low doses |  |  | > 15 |  |  |
| CC(C)Oc1ccc2c(c1)C(=O)/C(=N\Nc1nc3ccccc3s1)C2 [7-74, (Z)-2-(2-(benzo[d]thiazol-2-yl)hydrazineylidene)-6-isopropoxy-2,3-dihydro-1H-inden-1-one] | Positive binding | 17 | 6 | Specific to 42D at low doses |  |  | > 20 |  |  |
| O=C1/C(=N\Nc2nc3ccccc3s2)Cc2cc(C(F)(F)F)ccc21 [7-108] | Positive binding | > 60 | 68 | Specific to 42D cells until 10 μM; also recorded: Specific to 42D cells up to 10 μM |  |  | > 15 |  |  |
| O=C1/C(=N\Nc2nc3ccccc3s2)Nc2cc(Br)ccc21 [7-116] | No binding | > 60 | 64 | Not specific |  |  |  |  |  |
| CC(C)(C)OC(=O)c1ccc2c(c1)C(=O)/C(=N\Nc1nc3ccccc3s1)C2 [7-119] | No binding | 27 | 18 | Not specific |  |  |  |  |  |
| Nc1ccc2c(c1)C/C(=N/Nc1nc3ccccc3s1)C2=O [7-120] | No binding | 24 | 17 | Not specific |  |  |  |  |  |
| c1ccc2c(c1)CC/C2=N\Nc1nc2ccccc2s1 [VPC-7] |  |  |  | 42D not 16D |  |  |  | 82.1 | 97.8 |
| c1ccc2c(c1)CC/C2=N\Nc1nc2ccccc2[nH]1 [VPC-8] |  |  |  | 42D and 16D non-specific |  |  |  | 84.5 | 96.1 |
| c1ccc2c(c1)CC/C2=N\Nc1ccc2ccccc2n1 [VPC-39] |  |  |  | non-specific |  |  |  | 99 | 99.9 |
